Test results reported in PubChem BioAssay (NCI).
Several values for one entry are separate records, joined by “and”; a condition that tells them apart may be missing. Identical values can stand only once.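 Tested at 5 concentrations; 48 h exposure; 96-well plates; endpoints linearly interpolated, else capped at highest concentration. GI50 = concentration required for 50% inhibition of growth. TGI marks complete inhibition of growth.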

What was measured:
Test in all cases: NCI anticancer screen, dose series, 48 h
A549 NSCLC = test system: A549 NSCLC
HL-60(TB) leukemia = test system: HL-60(TB) leukemia
HT29 colon = test system: HT29 colon
M14 melanoma = test system: M14 melanoma
NCI-H226 lung = test system: NCI-H226 lung
OVCAR-5 ovarian = test system: OVCAR-5 ovarian
SF-295 CNS = test system: SF-295 CNS
SK-MEL-2 melanoma = test system: SK-MEL-2 melanoma
SK-MEL-5 melanoma = test system: SK-MEL-5 melanoma
SW-620 colon = test system: SW-620 colon

## C=C1c2nc3ccccc3n2C=C(c2ccc(C)cc2)N1c1ccc(OC)cc1
A549 NSCLC
  TGI: > 100 µM
HL-60(TB) leukemia
  TGI: 55.6 µM
HT29 colon
  TGI: > 91.2 µM
M14 melanoma
  TGI: > 100 µM
NCI-H226 lung
  TGI: > 100 µM
OVCAR-5 ovarian
  TGI: > 100 µM
SF-295 CNS
  TGI: > 100 µM
SK-MEL-2 melanoma
  TGI: > 100 µM
SK-MEL-5 melanoma
  TGI: > 100 µM
SW-620 colon
  TGI: > 100 µM

## Cn1c(=O)c2c(nc3[nH]c(=O)c(Br)cn32)n(C)c1=O
A549 NSCLC
  TGI: > 100 µM
HL-60(TB) leukemia
  TGI: > 100 µM
HT29 colon
  TGI: > 100 µM
M14 melanoma
  TGI: > 100 µM
NCI-H226 lung
  TGI: > 100 µM
OVCAR-5 ovarian
  TGI: > 100 µM
SF-295 CNS
  TGI: > 100 µM
SK-MEL-2 melanoma
  TGI: > 100 µM
SK-MEL-5 melanoma
  TGI: > 100 µM
SW-620 colon
  TGI: > 100 µM

## C[n+]1cccc2ccc3cccnc3c21
A549 NSCLC
  TGI: > 100 µM
HL-60(TB) leukemia
  TGI: > 100 µM
HT29 colon
  TGI: > 100 µM
M14 melanoma
  TGI: > 100 µM
NCI-H226 lung
  TGI: 70 µM
OVCAR-5 ovarian
  TGI: > 100 µM
SF-295 CNS
  TGI: > 100 µM
SK-MEL-2 melanoma
  TGI: 97.1 µM
SK-MEL-5 melanoma
  TGI: 42 µM
SW-620 colon
  TGI: > 100 µM

## C/C(=C1\N=C(c2ccccc2)OC1=O)c1ccccc1
A549 NSCLC
  TGI: > 100 µM
HL-60(TB) leukemia
  TGI: > 100 µM
HT29 colon
  TGI: > 100 µM
M14 melanoma
  TGI: > 100 µM
NCI-H226 lung
  TGI: > 100 µM
OVCAR-5 ovarian
  TGI: > 100 µM
SF-295 CNS
  TGI: > 100 µM
SK-MEL-2 melanoma
  TGI: > 100 µM
SK-MEL-5 melanoma
  TGI: > 100 µM
SW-620 colon
  TGI: > 100 µM

## O=[N+]([O-])c1ccc(-n2nc3ccc4nonc4c3n2)cc1
A549 NSCLC
  TGI: > 100 µM
HL-60(TB) leukemia
  TGI: > 100 µM
HT29 colon
  TGI: > 100 µM
M14 melanoma
  TGI: > 100 µM
NCI-H226 lung
  TGI: 65.3 µM
OVCAR-5 ovarian
  TGI: > 100 µM
SF-295 CNS
  TGI: 87.9 µM
SK-MEL-2 melanoma
  TGI: > 100 µM
SK-MEL-5 melanoma
  TGI: > 100 µM
SW-620 colon
  TGI: > 100 µM

## Nc1[nH]c(=O)nc2c1ncn2C1OC(CO)C(O)C1O (stereo not given)
A549 NSCLC
  TGI: > 100 µM
HL-60(TB) leukemia
  TGI: 54.9 µM
HT29 colon
  TGI: > 100 µM
M14 melanoma
  TGI: > 100 µM
NCI-H226 lung
  TGI: > 100 µM
OVCAR-5 ovarian
  TGI: > 100 µM
SF-295 CNS
  TGI: > 100 µM
SK-MEL-2 melanoma
  TGI: > 100 µM
SK-MEL-5 melanoma
  TGI: > 100 µM
SW-620 colon
  TGI: > 100 µM

## COC(=O)C1OC(O[C@H]2CC[C@]3(C)[C@H]4CC=C5[C@@H]6CC(C)(C)CC[C@]6(C(=O)OC6OCC(O)C(O)C6OC6OC(C)C(OC7OCC(O)C(O)C7O)C(O)C6O)[C@H](O)C[C@@]5(C)[C@]4(C)CC[C@H]3C2(C)C)C(O)C(O)C1O (stereo not given in full)
A549 NSCLC
  TGI: 11.8 µM and 14.6 µM
HL-60(TB) leukemia
  TGI: 5.28 µM and 6.62 µM
HT29 colon
  TGI: 9.7 µM and 15.3 µM
M14 melanoma
  TGI: 7.65 µM and 14.8 µM
NCI-H226 lung
  TGI: 13.9 µM and 24.8 µM
OVCAR-5 ovarian
  TGI: 15.8 µM and 19.4 µM
SF-295 CNS
  TGI: 13.7 µM and 14.9 µM
SK-MEL-2 melanoma
  TGI: 7.83 µM and 7.96 µM
SK-MEL-5 melanoma
  TGI: 19.4 µM and 25.8 µM
SW-620 colon
  TGI: > 57 µM and 27.2 µM

## CCOC(=O)c1cc(-c2ccc(OC)cc2)c([N+](=O)[O-])[nH]1
A549 NSCLC
  TGI: > 10 µM
HL-60(TB) leukemia
  TGI: > 10 µM
HT29 colon
  TGI: > 10 µM
M14 melanoma
  TGI: > 10 µM
NCI-H226 lung
  TGI: > 10 µM
OVCAR-5 ovarian
  TGI: > 10 µM
SF-295 CNS
  TGI: > 10 µM
SK-MEL-2 melanoma
  TGI: > 10 µM
SK-MEL-5 melanoma
  TGI: > 10 µM
SW-620 colon
  TGI: > 10 µM

## ClC1=NN=C(c2c[nH]c3ccccc23)CC1NCc1ccccc1 (stereo not given)
A549 NSCLC
  TGI: > 100 µM
HL-60(TB) leukemia
  TGI: > 100 µM
HT29 colon
  TGI: > 100 µM
M14 melanoma
  TGI: > 100 µM
NCI-H226 lung
  TGI: > 100 µM
OVCAR-5 ovarian
  TGI: > 100 µM
SF-295 CNS
  TGI: > 100 µM
SK-MEL-2 melanoma
  TGI: > 100 µM
SK-MEL-5 melanoma
  TGI: > 100 µM
SW-620 colon
  TGI: > 100 µM

## O=C1Nc2ccccc2/C1=C\c1c(Cl)n(-c2ccccc2)c2ccccc12
A549 NSCLC
  TGI: 25 µM
HL-60(TB) leukemia
  TGI: > 100 µM
HT29 colon
  TGI: 6.46 µM
M14 melanoma
  TGI: 10.1 µM
NCI-H226 lung
  TGI: 12.2 µM
OVCAR-5 ovarian
  TGI: 12.9 µM
SF-295 CNS
  TGI: 15.6 µM
SK-MEL-2 melanoma
  TGI: 36.3 µM
SK-MEL-5 melanoma
  TGI: 17.5 µM
SW-620 colon
  TGI: > 100 µM

## CC1=NN(C(=O)CC(=O)Nc2cccc(C)c2)C(=O)C1N=Nc1ccc(S(=O)(=O)CCOS(=O)(=O)O)cc1 (stereo not given)
A549 NSCLC
  TGI: 50.6 µM
HL-60(TB) leukemia
  TGI: > 100 µM
HT29 colon
  TGI: 11.5 µM
M14 melanoma
  TGI: 17.3 µM
NCI-H226 lung
  TGI: 6.79 µM
OVCAR-5 ovarian
  TGI: 66.2 µM
SF-295 CNS
  TGI: 11.3 µM
SK-MEL-2 melanoma
  TGI: 2.67 µM
SK-MEL-5 melanoma
  TGI: 2.88 µM
SW-620 colon
  TGI: 14.5 µM

## O=C1c2cc3c(cc2-c2c1c1cc(F)c(F)cc1c(=O)n2CCCn1ccnc1)OCO3
A549 NSCLC
  GI50: 0.018 µM
  TGI: 1.32 µM
HL-60(TB) leukemia
  GI50: 0.0113 µM
  TGI: 16.6 µM
HT29 colon
  GI50: 0.0189 µM
  TGI: > 100 µM
M14 melanoma
  GI50: 0.0101 µM
  TGI: > 100 µM
NCI-H226 lung
  GI50: 0.0248 µM
  TGI: 0.115 µM
OVCAR-5 ovarian
  GI50: 0.0832 µM
  TGI: > 100 µM
SF-295 CNS
  GI50: < 0.01 µM
  TGI: 0.0133 µM
SK-MEL-2 melanoma
  GI50: 0.256 µM
  TGI: 0.93 µM
SK-MEL-5 melanoma
  GI50: 0.02 µM
  TGI: 0.0852 µM
SW-620 colon
  GI50: < 0.01 µM
  TGI: > 100 µM

## COC1(CC[C@@H](C)COC2OC(CO)C(O)C(O)C2O)OC2C[C@H]3[C@@H]4CC[C@H]5C[C@@H](OC6OC(CO)C(OC7OC(CO)C(O)C(O)C7O)C(O)C6OC6OC(C)C(O)C(O)C6O)[C@H](O)C[C@]5(C)[C@H]4CC[C@]3(C)C2[C@@H]1C (stereo not given in full)
A549 NSCLC
  TGI: 3.83 µM
HL-60(TB) leukemia
  TGI: 5.38 µM
HT29 colon
  TGI: 4.99 µM
M14 melanoma
  TGI: 3.36 µM
NCI-H226 lung
  TGI: 4.52 µM
OVCAR-5 ovarian
  TGI: 4.57 µM
SF-295 CNS
  TGI: 3.28 µM
SK-MEL-2 melanoma
  TGI: 3.9 µM
SK-MEL-5 melanoma
  TGI: 3.36 µM
SW-620 colon
  TGI: 4.66 µM

## CC1=C(CO)C(=O)OC(C(C)C2CCC3C4CC5OC56C(O)C(N5CC5)=CC(=O)C6(C)C4CCC23C)C1 (stereo not given)
A549 NSCLC
  TGI: 29.6 µM
HL-60(TB) leukemia
  TGI: 6.08 µM
HT29 colon
  TGI: 13.7 µM
M14 melanoma
  TGI: 24.6 µM
NCI-H226 lung
  TGI: 29.1 µM
OVCAR-5 ovarian
  TGI: 31.2 µM
SF-295 CNS
  TGI: 33.7 µM
SK-MEL-2 melanoma
  TGI: 18.1 µM
SK-MEL-5 melanoma
  TGI: 25.4 µM
SW-620 colon
  TGI: 6.4 µM

## N#Cc1ccccc1NC(=O)C(=O)C(C(=O)c1ccccc1F)C1OC(=O)c2ccccc21 (stereo not given)
A549 NSCLC
  TGI: > 100 µM
HL-60(TB) leukemia
  TGI: 54.6 µM
HT29 colon
  TGI: > 100 µM
M14 melanoma
  TGI: > 100 µM
NCI-H226 lung
  TGI: 64.4 µM
OVCAR-5 ovarian
  TGI: > 100 µM
SF-295 CNS
  TGI: > 100 µM
SK-MEL-2 melanoma
  TGI: 68.8 µM
SK-MEL-5 melanoma
  TGI: > 100 µM
SW-620 colon
  TGI: > 100 µM

## CCCCCC[C@H]([C@H](C)O)n1cnc2c(N)ncnc21
A549 NSCLC
  TGI: > 100 µM
HL-60(TB) leukemia
  TGI: > 100 µM
HT29 colon
  TGI: > 100 µM
M14 melanoma
  TGI: > 100 µM
NCI-H226 lung
  TGI: > 100 µM
OVCAR-5 ovarian
  TGI: > 100 µM
SF-295 CNS
  TGI: > 100 µM
SK-MEL-2 melanoma
  TGI: > 100 µM
SK-MEL-5 melanoma
  TGI: > 100 µM
SW-620 colon
  TGI: > 100 µM

## O=S(=O)(Nc1nc2ccccc2nc1N1CCCCCC1)c1ccccc1
A549 NSCLC
  TGI: > 100 µM
HL-60(TB) leukemia
  TGI: 75.1 µM
HT29 colon
  TGI: > 100 µM
M14 melanoma
  TGI: 49.9 µM
NCI-H226 lung
  TGI: > 100 µM
OVCAR-5 ovarian
  TGI: > 100 µM
SF-295 CNS
  TGI: 70 µM
SK-MEL-2 melanoma
  TGI: 33.4 µM
SK-MEL-5 melanoma
  TGI: 29.5 µM
SW-620 colon
  TGI: 65.3 µM

## O=c1c2cc(Br)cc(Br)c2[nH]c(=S)n1-c1ccc(N=Nc2ccc(O)c3cccnc23)cc1
A549 NSCLC
  TGI: > 100 µM
HL-60(TB) leukemia
  TGI: > 100 µM
HT29 colon
  TGI: > 100 µM
M14 melanoma
  TGI: > 100 µM
NCI-H226 lung
  TGI: > 100 µM
OVCAR-5 ovarian
  TGI: > 100 µM
SF-295 CNS
  TGI: > 100 µM
SK-MEL-2 melanoma
  TGI: > 100 µM
SK-MEL-5 melanoma
  TGI: 29 µM
SW-620 colon
  TGI: > 100 µM

## N#Cc1c(NC(=S)Nc2ccc(Cl)cc2)sc2c1CCN(N1CCc3c(sc(NC(=S)Nc4ccc(Cl)cc4)c3C#N)C1)C2
A549 NSCLC
  TGI: > 100 µM
HL-60(TB) leukemia
  TGI: > 100 µM
HT29 colon
  TGI: 26.5 µM
M14 melanoma
  TGI: 23.2 µM
NCI-H226 lung
  TGI: 34.4 µM
OVCAR-5 ovarian
  TGI: 31.1 µM
SF-295 CNS
  TGI: 50.4 µM
SK-MEL-2 melanoma
  TGI: 50.2 µM
SK-MEL-5 melanoma
  TGI: 22.3 µM
SW-620 colon
  TGI: > 100 µM
